{"source": "PubChem BioAssay (NCI)", "experiment_in_all_cases": "DTP human tumour cell line panel, 48 h", "key": {"[1]": {"test_system": "SF-268 CNS"}, "[2]": {"test_system": "NCI-H522 lung"}, "[3]": {"test_system": "NCI/ADR-RES ovarian"}, "[4]": {"test_system": "IGROV1 ovarian"}, "[5]": {"test_system": "MCF7 breast"}, "[6]": {"test_system": "SNB-75 CNS"}, "[7]": {"test_system": "HCC-2998 colon"}, "[8]": {"test_system": "HOP-62 NSCLC"}, "[9]": {"test_system": "DU-145 prostate"}, "[10]": {"test_system": "NCI-H23 lung"}, "[11]": {"test_system": "SK-MEL-5 melanoma"}, "[12]": {"test_system": "SK-OV-3 ovarian"}, "[13]": {"test_system": "LOX IMVI melanoma"}, "[14]": {"test_system": "HT29 colon"}, "[15]": {"test_system": "SK-MEL-28 melanoma"}, "[16]": {"test_system": "UO-31 renal"}, "[17]": {"test_system": "CCRF-CEM leukemia"}, "[18]": {"test_system": "MALME-3M melanoma"}, "[19]": {"test_system": "HOP-92 NSCLC"}, "[20]": {"test_system": "BT-549 breast"}, "[21]": {"test_system": "OVCAR-3 ovarian"}, "[22]": {"test_system": "A498 renal"}, "[23]": {"test_system": "COLO 205 colon"}, "[24]": {"test_system": "SW-620 colon"}, "[25]": {"test_system": "UACC-62 melanoma"}, "[26]": {"test_system": "HCT-15 colon"}, "[27]": {"test_system": "SK-MEL-2 melanoma"}, "[28]": {"test_system": "RXF 393 renal"}, "[29]": {"test_system": "A549 NSCLC"}}, "note": "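All cell lines were grown in 96-well plates and treated with compound for 48 hours. Abbreviation: GI50, concentration required for 50% inhibition of growth. TGI is the concentration that stops growth completely.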", "data": [{"compound": "O=C(CSc1nnc(-c2ccc(Cl)cc2)n1-c1ccccc1)Nc1ccc(Cl)cc1", "values": [{"measurement": "TGI", "setting": "[1]", "result": "> 100", "unit": "µM"}, {"measurement": "GI50", "setting": "[2]", "result": 3.11, "unit": "µM"}, {"measurement": "TGI", "setting": "[2]", "result": 17.2, "unit": "µM"}, {"measurement": "GI50", "setting": "[3]", "result": 4.06, "unit": "µM"}, {"measurement": "TGI", "setting": "[3]", "result": "> 100", "unit": "µM"}, {"measurement": "GI50", "setting": "[4]", "result": 5.24, "unit": "µM"}, {"measurement": "TGI", "setting": "[4]", "result": "> 100", "unit": "µM"}, {"measurement": "GI50", "setting": "[5]", "result": 5.76, "unit": "µM"}, {"measurement": "TGI", "setting": "[5]", "result": "> 100", "unit": "µM"}, {"measurement": "GI50", "setting": "[6]", "result": 1.57, "unit": "µM"}, {"measurement": "TGI", "setting": "[6]", "result": 4.57, "unit": "µM"}, {"measurement": "GI50", "setting": "[7]", "result": 43.9, "unit": "µM"}, {"measurement": "TGI", "setting": "[7]", "result": "> 100", "unit": "µM"}, {"measurement": "GI50", "setting": "[8]", "result": 3.34, "unit": "µM"}, {"measurement": "TGI", "setting": "[8]", "result": 16, "unit": "µM"}, {"measurement": "GI50", "setting": "[9]", "result": 7.41, "unit": "µM"}, {"measurement": "TGI", "setting": "[9]", "result": "> 100", "unit": "µM"}, {"measurement": "GI50", "setting": "[10]", "result": 5.09, "unit": "µM"}, {"measurement": "TGI", "setting": "[10]", "result": 43.7, "unit": "µM"}, {"measurement": "GI50", "setting": "[11]", "result": 8.07, "unit": "µM"}, {"measurement": "TGI", "setting": "[11]", "result": "> 100", "unit": "µM"}, {"measurement": "GI50", "setting": "[12]", "result": 4.53, "unit": "µM"}, {"measurement": "TGI", "setting": "[12]", "result": 17.3, "unit": "µM"}, {"measurement": "GI50", "setting": "[13]", "result": 2.98, "unit": "µM"}, {"measurement": "TGI", "setting": "[13]", "result": 10.2, "unit": "µM"}, {"measurement": "GI50", "setting": "[14]", "result": 7.79, "unit": "µM"}, {"measurement": "TGI", "setting": "[14]", "result": "> 100", "unit": "µM"}, {"measurement": "GI50", "setting": "[15]", "result": 15.4, "unit": "µM"}, {"measurement": "TGI", "setting": "[15]", "result": "> 100", "unit": "µM"}, {"measurement": "GI50", "setting": "[16]", "result": 1.83, "unit": "µM"}, {"measurement": "TGI", "setting": "[16]", "result": 5.2, "unit": "µM"}, {"measurement": "GI50", "setting": "[17]", "result": "> 100", "unit": "µM"}, {"measurement": "TGI", "setting": "[17]", "result": "> 100", "unit": "µM"}, {"measurement": "GI50", "setting": "[18]", "result": 3.67, "unit": "µM"}, {"measurement": "TGI", "setting": "[18]", "result": 22.3, "unit": "µM"}, {"measurement": "GI50", "setting": "[19]", "result": 2.72, "unit": "µM"}, {"measurement": "TGI", "setting": "[19]", "result": 9.6, "unit": "µM"}, {"measurement": "GI50", "setting": "[20]", "result": 3.66, "unit": "µM"}, {"measurement": "TGI", "setting": "[20]", "result": 38.8, "unit": "µM"}, {"measurement": "GI50", "setting": "[21]", "result": 6.2, "unit": "µM"}, {"measurement": "TGI", "setting": "[21]", "result": 57.8, "unit": "µM"}, {"measurement": "GI50", "setting": "[22]", "result": 1.88, "unit": "µM"}, {"measurement": "TGI", "setting": "[22]", "result": 5.15, "unit": "µM"}, {"measurement": "GI50", "setting": "[23]", "result": 15.7, "unit": "µM"}, {"measurement": "TGI", "setting": "[23]", "result": "> 100", "unit": "µM"}, {"measurement": "GI50", "setting": "[24]", "result": 8.68, "unit": "µM"}, {"measurement": "TGI", "setting": "[24]", "result": "> 100", "unit": "µM"}, {"measurement": "GI50", "setting": "[25]", "result": 4.81, "unit": "µM"}, {"measurement": "TGI", "setting": "[25]", "result": "> 100", "unit": "µM"}, {"measurement": "GI50", "setting": "[26]", "result": 87.1, "unit": "µM"}, {"measurement": "TGI", "setting": "[26]", "result": "> 100", "unit": "µM"}, {"measurement": "GI50", "setting": "[27]", "result": 13.6, "unit": "µM"}, {"measurement": "TGI", "setting": "[27]", "result": 63.8, "unit": "µM"}, {"measurement": "GI50", "setting": "[28]", "result": 2.03, "unit": "µM"}, {"measurement": "TGI", "setting": "[28]", "result": 4.98, "unit": "µM"}, {"measurement": "GI50", "setting": "[29]", "result": 3.67, "unit": "µM"}, {"measurement": "TGI", "setting": "[29]", "result": "> 100", "unit": "µM"}]}]}
